The test system of experiment [1] is APOBEC3G in peripheral blood lymphocytes. In words: PBLs incubated with stimulant for 48 hours, Western blot for APOBEC3G (Example 2). In kind it is cell-based, Human. The following applies: incubated with stimulant for 48 hours versus unstimulated. As to the method: Human peripheral blood lymphocytes (PBLs) were isolated from blood and then incubated with anti-CD3 antibody (α-CD3), anti-CD28 antibody (α-CD28), IL-9, IL-12, IL-13, IL-15, or IFN-γ for 48 hours. Cells were lysed, the lysates clarified, and the protein concentration of the lysates was quantitated. Equal amounts of proteins in the lysates were separated by SDS-PAGE. After separation of the proteins by SDS-PAGE, the proteins were transferred to a membrane, and antibody to APOBEC3G was used to detect APOBEC3G protein on the membrane. The results are depicted in FIGS. 1-13.
FIG. 11 depicts the effect of PHA, anti-CD3 antibody, anti-CD28 antibody, and IL-15 on the level of APOBEC3G in peripheral blood lymphocytes. […] Western blot of cell lysates deriving from stimulated and unstimulated peripheral blood lymphocytes. PBLs were isolated from blood and then incubated with the indicated stimulant for 48 hours. Following separation of the proteins by SDS-PAGE, antibody to APOBEC3G was used to detect APOBEC3G protein. As a loading control, anti-β-actin was used to detect β-actin.
A general note: A western blot detects proteins with antibodies after separation by electrophoresis.

In experiment [2] the test system is Vif-mediated depletion of APOBEC3G-HA in 293T cells. In words: Proteasome inhibitor panel in 293T cells transiently transfected with APOBEC3G-HA and Vif, immunoblot. In kind it is cell-based. The following applies: 15 hours. As to the method: 293T cells were transfected with the indicated amounts of expression vector DNA using the calcium phosphate method. Lysis buffers used for immunoblotting were (1) 100-400 mM NaCl, 50 mM Hepes, 0.2% NP40, 0-5 mM EDTA, 0.1 mM PMSF, plus complete protease inhibitor cocktail (Roche)(1 tablet/50 ml buffer) or (2) 50 mM Hepes, pH 7.2, 135 mM NaCl, 1% Triton X-100, 0.5% deoxycholate, 10% glycerol, 1 mM EDTA, 1× protease inhibitor cocktail (Calbiochem). Samples were analyzed using standard SDS-PAGE techniques.
(§1) For the proteasome inhibitor experiments in transiently transfected cells, 293T cells were transiently transfected with 0.1 μg of APOBEC3G-HA DNA, 2 μg of control vector DNA and 2 μg of either pcDNA3.1 Vif DNA vector or an additional 2 μg of control vector DNA. Twenty-four hours after transfection, the cells were treated with the indicated inhibitor and harvested 15 hours later. For the proteasome inhibitor experiments using infected H9 cells, H9 cells were infected by spinoculation as described above. Forty-four hours after infection, the cells were treated for 16 hours with either dimethylsulfoxide (DMSO) (0.1%) or 0.25 μM epoxomicin. All of the inhibitors (ALLN, MG132, epoxomicin, Calpain Inhibitor III, and clasto-Lactacystin-β-Lactone) were purchased from CalBiochem and were dissolved in DMSO.
To confirm this finding in a different system, a similar experiment was performed using 293T cells transiently transfected with an APOBEC3G-HA expression vector and either a Vif expression vector or a control vector. Twenty-four hours after transfection the cells were treated with a panel of different proteasome inhibitors for a 15-hour period. It was observed that the broadly acting proteasome inhibitors MG132 (12.5 μM) and ALLN (25 μM) as well as the more specific proteasome inhibitor clasto-Lactacystin-β-Lactone ([…], 20 μM) enhanced the levels of APOBEC3G-HA in the presence of Vif when compared to the diluent control sample (0.1% DMSO) (FIG. 8C, lanes 7 through 12).
(§2) FIG. 8A-C. Vif shortens the half-life of APOBEC3G, and proteasome inhibitors partially block the intracellular depletion of APOBEC3G-HA. (A) Pulse-Chase Radiolabeling. HEK 293 cells transiently transfected with APOBEC3G-HA and Vif or control vector DNA were pulse-labeled for 30 min. The initial pulse-labeled (t=0) samples were harvested, and the remaining samples were incubated with chase media for the indicated time points. After immunoprecipitation with anti-HA antibody, the samples were analyzed by SDS-PAGE and the gels were subjected to autoradiography. The relative intensity of the bands were quantified and the Vif (+) and Vif (−) samples were normalized to 1 and graphed (FIG. 8, right side). The T1/2 of APOBEC3G was 1.9 hours in the presence of Vif and 10 hours in the absence of Vif. (B) Proteasome inhibitor studies using infected H9 cells. Mock or HIV-1 wt-infected H9 cells were treated with the broadly active proteasome inhibitor epoxomicin (0.25 μM) or DMSO (0.1%) 44 hours after infection. Sixteen hours following treatment, the cells were harvested; and whole cell lysates were prepared by boiling the cells in Laemmli lysis buffer. Note that Epoxomicin caused an increase in endogenous APOBEC3G levels in the infected sample (compare lane 2 with lane 1). (C) Proteasome inhibitor studies using transiently-transfected 293T cells. Twenty-four hours following transfection of 293T cells with 0.1 μg APOBEC3G and 2 μg Vif or control vector DNA, the cells were treated with the indicated concentration of inhibitor for 15 hours. APOBEC3G-HA levels were elevated in the presence of the proteasome inhibitors MG132, ALLN, and clasto-lactacystin-β-lactone (lanes 8-11), but not in the presence of calpain inhibitor III (lane 12).

Experiment [3] deals with Vif-induced degradation of APOBEC3G (26S proteasome) in H9 cells. In words: Proteasome inhibitor experiment in HIV-1 wt-infected or mock-infected H9 cells, immunoblot of whole cell lysates. The following applies: 0.25 μM; for APOBEC3G levels in infected cells compared to DMSO-treated cells: treated 16 hours, 44 hours after infection. In kind it is cell-based, human. As to the method:
as §1
To investigate whether the 26S proteasome might mediate the Vif-induced degradation of APOBEC3G, H9 cells were infected with HIV-1 wt or were mock-infected. […] Whole cell lysates were subsequently prepared by boiling the cells in Laemmli lysis buffer, followed by protein separation by SDS-PAGE and immunoblotting. As expected, APOBEC3G levels were much lower in the infected sample when compared to the uninfected sample (FIG. 8B, lanes 1 and 3).
as §2, with “APOBEC3G-HA levels were elevated in the presence of the proteasome inhibitors MG132, ALLN, and clasto-lactacystin-β-lactone (lanes 8-11), but not in the presence of calpain inhibitor III (lane 12).” left out

Entries after “also recorded” stand apart in the source; their conditions may differ. Non-standard residues stand in square brackets, D forms with d. Residues, ends and D or L forms follow the SMILES beside them. *: point of attachment. Nle = CCCC[C@H](N)C(=O)O; Cbz = O=C(OCc1ccccc1)*

For the compound `CC(=O)O[C@@]12C[C@@H](C)[C@@]3(O)[C@@H](C=C(CO)C[C@]4(O)C(=O)C(C)=C[C@@H]34)[C@@H]1C2(C)C` [prostratin, 12-deoxyphorbol-13-acetate], the “level of APOBEC3G in peripheral blood lymphocytes” value in experiment [1] is listed as “upregulated”.
Regarding `CCCC[C@@H](C=O)NC(=O)[C@H](CC(C)C)NC(=O)[C@H](CC(C)C)NC(C)=O` [ALLN] (Ac-Leu-Leu-[Nle]-aldehyde), the “levels of APOBEC3G-HA in the presence of Vif compared to diluent control (0.1% DMSO)” value (from here on “levels of APOBEC3G-HA … (0.1% DMSO)”) in experiment [2] (25 μM) was “enhanced; also recorded: elevated”.
On to IL-15: cytokine, for which the “level of APOBEC3G in peripheral blood lymphocytes” value in experiment [1] is given as “increased expression”.
On to `CC[C@H](C)[C@H](NC(=O)[C@H]([C@@H](C)CC)N(C)C(C)=O)C(=O)N[C@H](C(=O)N[C@@H](CC(C)C)C(=O)[C@@]1(C)CO1)[C@@H](C)O` [epoxomicin], for which the Vif levels result in experiment [3] (HIV-1 wt-infected H9 cells, 16 hours) is “increase”. The “APOBEC3G levels in infected cells compared to DMSO-treated cells” value is “elevated” in experiment [3] (HIV-1 wt-infected H9 cells) and “increase” in experiment [3] (HIV-1 wt-infected H9 cells, listed as Epoxomicin). Also, in experiment [3] (mock-infected H9 cells, 16 hours), the “level of APOBEC3G in the uninfected cultures” value is recorded as “did not appear to cause a similar increase”.
As for `CC(C)[C@H](NC(=O)OCc1ccccc1)C(=O)N[C@H](C=O)Cc1ccccc1` [Calpain Inhibitor III] (Cbz-Val-Phe-aldehyde), the “levels of APOBEC3G-HA … (0.1% DMSO)” value is listed as “did not cause an increase” in experiment [2] (50 μM) and “not” in experiment [2] (50 μM, listed as calpain inhibitor III).
`CC(C)[C@H](O)[C@@]12NC(=O)[C@H](C)[C@@H]1OC2=O` [clasto-Lactacystin-β-Lactone]: the “levels of APOBEC3G-HA … (0.1% DMSO)” value in experiment [2] (110 μM, 20 μM) is on record as “enhanced”; in experiment [2] (110 μM, 20 μM, listed as clasto-lactacystin-β-lactone), “elevated”.
Consider `CCCCCCCCCCCCCC(=O)O[C@@H]1[C@@H](C)[C@@]2(O)[C@@H](C=C(CO)C[C@]3(O)C(=O)C(C)=C[C@@H]23)[C@@H]2C(C)(C)[C@]12OC(C)=O` [PMA, phorbol-12-myristate-13-acetate], for which, in experiment [1], the “level of APOBEC3G in peripheral blood lymphocytes” value is “upregulated”.
